Measurements: ChEMBL document CHEMBL5154808, “Novel β-Hairpin Antimicrobial Peptides Containing the β-Turn Sequence of -RRRF- Having High Cell Selectivity and Low Incidence of Drug Resistance” (J Med Chem, 2022)

How the values were obtained:
Escherichia coli [1] = test: Antimicrobial activity against Escherichia coli ATCC 25922 assessed as reduction in bacterial growth incubated for 18 hrs in presence of 150 mM NaCl by CLSI protocol based broth microdilution method (reference value: 8 uM); assay type: functional
Escherichia coli [2] = test: Antimicrobial activity against Escherichia coli ATCC 25922 assessed as reduction in bacterial growth incubated for 18 hrs in presence of 4.5 mM KCl by CLSI protocol based broth microdilution method (reference value: 8 uM); assay type: functional
Staphylococcus aureus [3] = test: Antimicrobial activity against Staphylococcus aureus ATCC 25923 assessed as reduction in bacterial growth incubated for 18 hrs in presence of 150 mM NaCl by CLSI protocol based broth microdilution method (reference value: 8 uM); assay type: functional
Escherichia coli [4] = test: Synergistic antibacterial activity against Escherichia coli ATCC 25922 assessed as fractional inhibitory concentration index incubated for 18 hrs in presence of kanamycin by checker board assay; assay type: functional
Escherichia coli [5] = test: Synergistic antibacterial activity against kanamycin-resisitant Escherichia coli ATCC 25922 assessed as fractional inhibitory concentration index incubated for 18 hrs in presence of kanamycin by checker board assay; assay type: functional
[6] = Acute toxicity in Kunming mouse assessed as hepatocyte hyperemia in liver at 62 mg/kg, ip by H and E staining based analysis; assay type: organism-based
[7] = Acute toxicity in Kunming mouse assessed as swelling in liver at 62 mg/kg, ip by H and E staining based analysis; assay type: organism-based; details: in vivo
Escherichia coli [8] = test: Antimicrobial activity against Escherichia coli ATCC 25922 assessed as reduction in bacterial growth incubated for 18 hrs in presence of 4 uM FeCl3 by CLSI protocol based broth microdilution method (reference value: 4 uM); assay type: functional
Escherichia coli [9] = test: Antimicrobial activity against Escherichia coli ATCC 25922 assessed as reduction in bacterial growth incubated for 18 hrs in presence of 10% serum by CLSI protocol based broth microdilution method (reference value: 4 uM); assay type: functional
Staphylococcus aureus [10] = test: Synergistic antibacterial activity against meropenem-resistant Staphylococcus aureus ATCC 25923 assessed as fractional inhibitory concentration index incubated for 18 hrs in presence of meropenem by checker board assay; assay type: functional
Staphylococcus aureus [11] = test: Synergistic antibacterial activity against polymyxin B-resistant Staphylococcus aureus ATCC 25923 assessed as fractional inhibitory concentration index incubated for 18 hrs in presence of polymyxin B by checker board assay; assay type: functional

Substance: H-KWKWKRRRFKWKWK-NH2
- MIC (Escherichia coli [1]): 8 µM
- MIC (Escherichia coli [2]): 8 µM
- MIC (Staphylococcus aureus [3]): 16 µM
- fractional inhibitory concentration index (FICI) (Escherichia coli [4]): 0.3125
- fractional inhibitory concentration index (FICI) (Escherichia coli [5]): 0.3125
- Activity [6]: Toxic
- Activity [7]: Toxic

Substance: H-RIRIRRRRFRIRIR-NH2
- MIC (Escherichia coli [8]): 8 µM
- MIC (Escherichia coli [9]): 4 µM
- fractional inhibitory concentration index (FICI) (Staphylococcus aureus [10]): 0.375
- fractional inhibitory concentration index (FICI) (Staphylococcus aureus [11]): 0.3125
